# Results from patent EP0908457B1, “3-(1,2-benzisothiazol- and isoxazol-5-Y1)-2,4(1H,3H)-pyrimidinedione or thione and 3-(1,2-benzisothiazol- and isoxazol-5-y1)-4(3H)-pyrimidinone or thione herbicidal agents” (BASF AKTIENGESELLSCHAFT, priority 1997, dated 1999).
# Assays:
# [1] = test system: Cyperus serotinus, Rottb.; experiment: Preemergence weed control under flooded paddy conditions, CYPSE (Flatsedge); type: in vivo; settings: for CYPSE: herbicidal effect rating 0-9, three to four weeks after treatment; for herbicidal effect rating, CYPSE / CYPSE herbicidal effect rating: rated three to four weeks after treatment; on herbicidal effect rating, CYPSE: meaning of each grade not given here
# [2] = test system: Echinochloa oryzoides (Ard.) Fritsch.; experiment: Preemergence weed control under flooded paddy conditions, ECHORC (Watergrass (Calif.)); type: in vivo; settings: flooded paddy; for ECHORC: herbicidal effect rating 0-9, three to four weeks after treatment; for herbicidal effect rating, ECHORC / ECHORC herbicidal effect rating: rated three to four weeks after treatment; on herbicidal effect rating, ECHORC: meaning of each grade not given here
# Cyperus iria = experiment: Preemergence weed control under flooded paddy conditions, CYPIR (Rice Flatsedge); type: in vivo; settings: flooded paddy; for CYPIR: herbicidal effect rating 0-9, three to four weeks after treatment; for herbicidal effect rating, CYPIR / CYPIR herbicidal effect rating: rated three to four weeks after treatment; on herbicidal effect rating, CYPIR: meaning of each grade not given here
# [3] = test system: Oryza sativa, (L.) Tebonnet; experiment: Rice tolerance to post-transplant applications under flooded paddy conditions (Example 187), ORYSAT (Rice, Tebonnet); settings: for ORYSAT: herbicidal effect rating 0-9, three to four weeks after treatment; for herbicidal effect rating ORYSAT / ORYSAT herbicidal effect rating / herbicidal effect rating, ORYSAT (rice tolerance): rated three to four weeks after treatment
# Sagittaria pygmaea, L. = experiment: Preemergence weed control under flooded paddy conditions, SAGPY (Arrowhead (Pygmaea)); type: in vivo; settings: flooded paddy; for SAGPY: herbicidal effect rating 0-9, three to four weeks after treatment; for herbicidal effect rating, SAGPY / SAGPY herbicidal effect rating: rated three to four weeks after treatment; on herbicidal effect rating, SAGPY: meaning of each grade not given here
# [4] = test system: Monochoria vaginalis, Presl.; experiment: Preemergence weed control under flooded paddy conditions, MOOVA (Monochoria); type: in vivo; settings: flooded paddy; for MOOVA: herbicidal effect rating 0-9, three to four weeks after treatment; for herbicidal effect rating, MOOVA / MOOVA herbicidal effect rating: rated three to four weeks after treatment; on herbicidal effect rating, MOOVA: meaning of each grade not given here
# [5] = 0.0620 kg/ha, preemergence weeds
# [6] = 0.1250 kg/ha, preemergence weeds
# [7] = 0.2500 kg/ha, preemergence weeds
# [8] = 0.0320 kg/ha, preemergence weeds
# [9] = Rate 0.0320 kg/ha, preemergence weeds
# [10] = Rate 0.0620 kg/ha, preemergence weeds
# [11] = Rate 0.1250 kg/ha, preemergence weeds
# [12] = Rate 0.2500 kg/ha, preemergence weeds
# [13] = Rate 0.0320 kg/ha, preemergence
# [14] = Rate 0.0620 kg/ha, preemergence
# [15] = Rate 0.1250 kg/ha, preemergence
# [16] = Rate 0.2500 kg/ha, preemergence
# [17] = Rate 0.5000 kg/ha, preemergence
structure (smiles),measurement,setting,value
"COC(=O)C(C)Oc1cc2c(cc1-c1nsc3ccc(-n4c(=O)cc(C(F)(F)F)n(C)c4=O)cc13)CCC2 (centres unmarked) [Example 435, Propionic acid, 2-{{6-{5-[3,6-dihydro-3-methyl-2,6-dioxo-4-(trifluoromethyl)-1(2H)-pyrimidinyl]-1,2-benzisothiazol-3-yl}-5-indanyl}oxy}-, methyl ester]",CYPSE,[1]; [5],0.0
same,CYPSE,[1]; [6],3.0
same,CYPSE,[1]; [7],2.0
same,ECHORC,[2]; [8],5.0
same,ECHORC,[2]; [5],7.0
same,ECHORC,[2]; [6],7.0
same,ECHORC,[2]; [7],9.0
same,CYPIR,Cyperus iria; [8],0.0
same,CYPIR,Cyperus iria; [5],0.0
same,CYPIR,Cyperus iria; [6],2.0
same,CYPIR,Cyperus iria; [7],3.0
same,ORYSAT,[3]; 0.0320 kg/ha,2.0
same,ORYSAT,[3]; 0.0620 kg/ha,1.0
same,ORYSAT,[3]; 0.1250 kg/ha,2.0
same,ORYSAT,[3]; 0.2500 kg/ha,2.0
same,SAGPY,"Sagittaria pygmaea, L.; [8]",0.0
same,SAGPY,"Sagittaria pygmaea, L.; [5]",0.0
same,SAGPY,"Sagittaria pygmaea, L.; [6]",0.0
same,SAGPY,"Sagittaria pygmaea, L.; [7]",6.0
same,MOOVA,[4]; [8],9.0
same,MOOVA,[4]; [5],9.0
same,MOOVA,[4]; [6],9.0
same,MOOVA,[4]; [7],9.0
"Cn1c(C(F)(F)F)cc(=O)n(-c2ccc3snc(-c4ccccc4OCC(=O)O)c3c2)c1=O [Example 312, Acetic acid, {o-{5-[3,6-dihydro-3-methyl-2,6-dioxo-4-(trifluoromethyl)-1(2H)-pyrimidinyl]-1,2-benzisothiazol-3-yl}phenoxy}-]","herbicidal effect rating, CYPSE",[1]; [9],0.0
same,"herbicidal effect rating, CYPSE",[1]; [10],3.5
same,"herbicidal effect rating, CYPSE",[1]; [11],4.5
same,"herbicidal effect rating, CYPSE",[1]; [12],6.0
same,"herbicidal effect rating, ECHORC",[2]; [9],6.0
same,"herbicidal effect rating, ECHORC",[2]; [10],6.5
same,"herbicidal effect rating, ECHORC",[2]; [11],9.0
same,"herbicidal effect rating, ECHORC",[2]; [12],9.0
same,"herbicidal effect rating, CYPIR",Cyperus iria; [9],4.5
same,"herbicidal effect rating, CYPIR",Cyperus iria; [10],6.5
same,"herbicidal effect rating, CYPIR",Cyperus iria; [11],9.0
same,"herbicidal effect rating, CYPIR",Cyperus iria; [12],9.0
same,herbicidal effect rating ORYSAT,[3]; Rate 0.0320 kg/ha,5.0
same,herbicidal effect rating ORYSAT,[3]; Rate 0.0620 kg/ha,6.5
same,herbicidal effect rating ORYSAT,[3]; Rate 0.1250 kg/ha,7.0
same,herbicidal effect rating ORYSAT,[3]; Rate 0.2500 kg/ha,7.5
same,"herbicidal effect rating, SAGPY","Sagittaria pygmaea, L.; [9]",0.0
same,"herbicidal effect rating, SAGPY","Sagittaria pygmaea, L.; [10]",2.0
same,"herbicidal effect rating, SAGPY","Sagittaria pygmaea, L.; [11]",5.5
same,"herbicidal effect rating, SAGPY","Sagittaria pygmaea, L.; [12]",6.5
same,"herbicidal effect rating, MOOVA",[4]; [9],4.5
same,"herbicidal effect rating, MOOVA",[4]; [10],6.0
same,"herbicidal effect rating, MOOVA",[4]; [11],9.0
same,"herbicidal effect rating, MOOVA",[4]; [12],9.0
"Cn1c(C(F)(F)F)cc(=O)n(-c2ccc3snc(-c4ccc(OCC(=O)O)cc4)c3c2)c1=O [Example 281, Acetic acid, {p-{5-[3,6-dihydro-3-methyl-2,6-dioxo-4-(trifluoromethyl)-1(2H)-pyrimidinyl]-1,2-benzisothiazol-3-yl}phenoxy}-]",CYPSE herbicidal effect rating,[1]; [13],9.0
same,CYPSE herbicidal effect rating,[1]; [14],9.0
same,CYPSE herbicidal effect rating,[1]; [15],9.0
same,CYPSE herbicidal effect rating,[1]; [16],9.0
same,CYPSE herbicidal effect rating,[1]; [17],9.0
same,ECHORC herbicidal effect rating,[2]; [13],0.0
same,ECHORC herbicidal effect rating,[2]; [14],5.9
same,ECHORC herbicidal effect rating,[2]; [15],7.1
same,ECHORC herbicidal effect rating,[2]; [16],9.0
same,ECHORC herbicidal effect rating,[2]; [17],7.0
same,CYPIR herbicidal effect rating,Cyperus iria; [13],4.0
same,CYPIR herbicidal effect rating,Cyperus iria; [14],8.0
same,CYPIR herbicidal effect rating,Cyperus iria; [15],9.0
same,CYPIR herbicidal effect rating,Cyperus iria; [16],9.0
same,CYPIR herbicidal effect rating,Cyperus iria; [17],9.0
same,ORYSAT herbicidal effect rating,[3]; Rate 0.0320 kg/ha,0.0
same,ORYSAT herbicidal effect rating,[3]; Rate 0.0620 kg/ha,2.0
same,ORYSAT herbicidal effect rating,[3]; Rate 0.1250 kg/ha,4.0
same,ORYSAT herbicidal effect rating,[3]; Rate 0.2500 kg/ha,6.0
same,ORYSAT herbicidal effect rating,[3]; Rate 0.5000 kg/ha,4.0
same,SAGPY herbicidal effect rating,"Sagittaria pygmaea, L.; [13]",0.0
same,SAGPY herbicidal effect rating,"Sagittaria pygmaea, L.; [14]",0.0
same,SAGPY herbicidal effect rating,"Sagittaria pygmaea, L.; [15]",2.0
same,SAGPY herbicidal effect rating,"Sagittaria pygmaea, L.; [16]",8.0
same,SAGPY herbicidal effect rating,"Sagittaria pygmaea, L.; [17]",9.0
same,MOOVA herbicidal effect rating,[4]; [13],9.0
same,MOOVA herbicidal effect rating,[4]; [14],9.0
same,MOOVA herbicidal effect rating,[4]; [15],9.0
same,MOOVA herbicidal effect rating,[4]; [16],9.0
same,MOOVA herbicidal effect rating,[4]; [17],9.0
"COc1ccccc1Oc1noc2ccc(-n3c(=O)cc(C(F)(F)F)n(C)c3=O)cc12 [Example 43, 3-[3-(o-Methoxyphenoxy)-1,2-benzisoxazol-5-yl]-1-methyl-6-(trifluoromethyl)-2,4(1H,3H)-pyrimidinedione]","herbicidal effect rating, CYPSE","[1]; 0.0313 kg/ha, preemergence",0.0
same,"herbicidal effect rating, CYPSE","[1]; 0.0625 kg/ha, preemergence",0.0
same,"herbicidal effect rating, CYPSE","[1]; 0.1250 kg/ha, preemergence",0.0
same,"herbicidal effect rating, CYPSE","[1]; 0.2500 kg/ha, preemergence",0.0
same,"herbicidal effect rating, ECHORC","[2]; 0.0313 kg/ha, preemergence",0.0
same,"herbicidal effect rating, ECHORC","[2]; 0.0625 kg/ha, preemergence",0.0
same,"herbicidal effect rating, ECHORC","[2]; 0.1250 kg/ha, preemergence",2.0
same,"herbicidal effect rating, ECHORC","[2]; 0.2500 kg/ha, preemergence",8.0
same,"herbicidal effect rating, CYPIR","Cyperus iria; 0.0313 kg/ha, preemergence",0.0
same,"herbicidal effect rating, CYPIR","Cyperus iria; 0.0625 kg/ha, preemergence",0.0
same,"herbicidal effect rating, CYPIR","Cyperus iria; 0.1250 kg/ha, preemergence",0.0
same,"herbicidal effect rating, CYPIR","Cyperus iria; 0.2500 kg/ha, preemergence",0.0
same,"herbicidal effect rating, ORYSAT (rice tolerance)",[3]; 0.0313 kg/ha,1.0
same,"herbicidal effect rating, ORYSAT (rice tolerance)",[3]; 0.0625 kg/ha,2.0
same,"herbicidal effect rating, ORYSAT (rice tolerance)",[3]; 0.1250 kg/ha,3.0
same,"herbicidal effect rating, ORYSAT (rice tolerance)",[3]; 0.2500 kg/ha,3.0
same,"herbicidal effect rating, SAGPY","Sagittaria pygmaea, L.; 0.0313 kg/ha, preemergence",0.0
same,"herbicidal effect rating, SAGPY","Sagittaria pygmaea, L.; 0.0625 kg/ha, preemergence",0.0
same,"herbicidal effect rating, SAGPY","Sagittaria pygmaea, L.; 0.1250 kg/ha, preemergence",0.0
same,"herbicidal effect rating, SAGPY","Sagittaria pygmaea, L.; 0.2500 kg/ha, preemergence",0.0
same,"herbicidal effect rating, MOOVA","[4]; 0.0313 kg/ha, preemergence",6.0
same,"herbicidal effect rating, MOOVA","[4]; 0.0625 kg/ha, preemergence",9.0
same,"herbicidal effect rating, MOOVA","[4]; 0.1250 kg/ha, preemergence",9.0
same,"herbicidal effect rating, MOOVA","[4]; 0.2500 kg/ha, preemergence",9.0
"Cn1c(C(F)(F)F)cc(=O)n(-c2ccc3snc(C(C#N)=Cc4ccoc4)c3c2)c1=O [Example 593, 1,2-Benzisothiazole-3-acetonitrile, 5-[3,6-dihydro-3-methyl-2,6-dioxo-4-(trifluoromethyl)-1(2H)-pyrimidinyl]-alpha-(3-furylmethylene)-]","herbicidal effect rating, CYPSE",[1]; [15],0.0
same,"herbicidal effect rating, CYPSE",[1]; [16],0.0
same,"herbicidal effect rating, ECHORC",[2]; [13],0.0
same,"herbicidal effect rating, ECHORC",[2]; [14],0.0
same,"herbicidal effect rating, ECHORC",[2]; [15],0.0
same,"herbicidal effect rating, ECHORC",[2]; [16],0.0
same,"herbicidal effect rating, CYPIR",Cyperus iria; [13],3.0
same,"herbicidal effect rating, CYPIR",Cyperus iria; [14],3.0
same,"herbicidal effect rating, CYPIR",Cyperus iria; [15],4.0
same,"herbicidal effect rating, CYPIR",Cyperus iria; [16],5.0
same,herbicidal effect rating ORYSAT,[3]; Rate 0.0320 kg/ha,0.0
same,herbicidal effect rating ORYSAT,[3]; Rate 0.0620 kg/ha,0.0
same,herbicidal effect rating ORYSAT,[3]; Rate 0.1250 kg/ha,0.0
same,herbicidal effect rating ORYSAT,[3]; Rate 0.2500 kg/ha,0.0
same,"herbicidal effect rating, SAGPY","Sagittaria pygmaea, L.; [13]",0.0
same,"herbicidal effect rating, SAGPY","Sagittaria pygmaea, L.; [14]",0.0
same,"herbicidal effect rating, SAGPY","Sagittaria pygmaea, L.; [15]",0.0
same,"herbicidal effect rating, SAGPY","Sagittaria pygmaea, L.; [16]",0.0
same,"herbicidal effect rating, MOOVA",[4]; [14],7.0
same,"herbicidal effect rating, MOOVA",[4]; [15],7.0
same,"herbicidal effect rating, MOOVA",[4]; [16],7.0
